According to ChEMBL document CHEMBL3885881, “DrugMatrix”:

Organism: Rattus norvegicus
Assay: DrugMatrix - Regimen: Daily Repeat
Assay type: toxicity, organism-based, Sprague-Dawley
Parameters: regimen Daily Repeat, gender Male, age 6-8 weeks
Settings: in vivo, po, route oral GAVAGE, vehicle .5 % CMC; for BASOPHIL / EOSINOPHIL / ERYTHROCYTE COUNT / HEMATOCRIT / HEMOGLOBIN / LEUKOCYTE COUNT / LYMPHOCYTE / MEAN CORPUSCULAR HEMOGLOBIN / MEAN CORPUSCULAR HEMOGLOBIN CONCENTRATION / MEAN CORPUSCULAR VOLUME / MONOCYTE / NEUTROPHIL / PLATELET COUNT: tissue Blood; for ALANINE AMINOTRANSFERASE / ALBUMIN / ALKALINE PHOSPHATASE / ASPARTATE AMINOTRANSFERASE / BLOOD UREA NITROGEN / CHLORIDE / CHOLESTEROL / CREATINE PHOSPHOKINASE / CREATININE / GLUCOSE / PHOSPHORUS / POTASSIUM / SODIUM / TOTAL BILIRUBIN / TOTAL PROTEIN: tissue Plasma
[1] = 0 mg/kg, 72 h, dose level Control, time 3 day
[2] = 0 mg/kg, 120 h, dose level Control, time 5 day
[3] = 0.09 mg/kg, 72 h, dose level Low, time 3 day
[4] = 0.09 mg/kg, 120 h, dose level Low, time 5 day
[5] = 0.9 mg/kg, 72 h, dose level High, time 3 day
[6] = 0.9 mg/kg, 120 h, dose level High, time 5 day

For CCN1C[C@]2(COC)[C@H](O)C[C@H](OC)[C@@]34[C@@H]5C[C@@]6(O)[C@H](OC(=O)c7ccccc7)[C@@H]5[C@@](OC(C)=O)([C@@H]([C@H](OC)[C@H]23)[C@@H]14)[C@@H](O)[C@@H]6OC [ACONITINE], the BASOPHIL [1] was 0.68%, the EOSINOPHIL [1] was 0.46% and the “ERYTHROCYTE COUNT” value [1] was 7.15 x10E6/uL. The HEMATOCRIT [1] was 45.44%, the HEMOGLOBIN [1] was 14.1 G/DL and the “LEUKOCYTE COUNT” value [1] was 9.78 x10E3/uL. The LYMPHOCYTE [1] was 84.44%, the “MEAN CORPUSCULAR HEMOGLOBIN” value [1] was 19.72 pg and the “MEAN CORPUSCULAR HEMOGLOBIN CONCENTRATION” value [1] was 31 G/DL. The “MEAN CORPUSCULAR VOLUME” value [1] was 63.66 fL, the MONOCYTE [1] was 2.14% and the NEUTROPHIL [1] was 11.16%. For the same molecule, the “PLATELET COUNT” value [1] was 1378.2 x10E3/uL, the “ALANINE AMINOTRANSFERASE” value [1] was 42.33 u/L and the ALBUMIN [1] was 3.8 G/DL. For the same molecule, the “ALKALINE PHOSPHATASE” value [1] was 388.17 u/L, the “ASPARTATE AMINOTRANSFERASE” value [1] was 68 u/L and the “BLOOD UREA NITROGEN” value [1] was 16.17 mg/dL. The CHLORIDE [1] was 96.67 MEQ/L, the CHOLESTEROL [1] was 71 mg/dL and the “CREATINE PHOSPHOKINASE” value [1] was 156.17 u/L. For the same molecule, the CREATININE [1] was 0.57 mg/dL, the GLUCOSE [1] was 193.67 mg/dL and the PHOSPHORUS [1] was 11.43 mg/dL. The POTASSIUM [1] was 7 MEQ/L, the SODIUM [1] was 140.33 MEQ/L and the “TOTAL BILIRUBIN” value [1] was 0.48 mg/dL. The “TOTAL PROTEIN” value [1] was 6.8 G/DL, the BASOPHIL [2] was 1.47% and the EOSINOPHIL [2] was 1%. The “ERYTHROCYTE COUNT” value [2] was 7.12 x10E6/uL, the HEMATOCRIT [2] was 45.47% and the HEMOGLOBIN [2] was 14.1 G/DL. The “LEUKOCYTE COUNT” value [2] was 11.38 x10E3/uL, the LYMPHOCYTE [2] was 82.57% and the “MEAN CORPUSCULAR HEMOGLOBIN” value [2] was 19.82 pg. The “MEAN CORPUSCULAR HEMOGLOBIN CONCENTRATION” value [2] was 31.02 G/DL, the “MEAN CORPUSCULAR VOLUME” value [2] was 63.88 fL and the MONOCYTE [2] was 2.2%. For the same molecule, the NEUTROPHIL [2] was 11.97%, the “PLATELET COUNT” value [2] was 1267 x10E3/uL and the “ALANINE AMINOTRANSFERASE” value [2] was 38 u/L. The ALBUMIN [2] was 3.72 G/DL, the “ALKALINE PHOSPHATASE” value [2] was 391 u/L and the “ASPARTATE AMINOTRANSFERASE” value [2] was 65.83 u/L. For the same molecule, the “BLOOD UREA NITROGEN” value [2] was 14.17 mg/dL, the CHLORIDE [2] was 107.67 MEQ/L and the CHOLESTEROL [2] was 61 mg/dL. The “CREATINE PHOSPHOKINASE” value [2] was 148.33 u/L, the CREATININE [2] was 0.57 mg/dL and the GLUCOSE [2] was 177.17 mg/dL. The PHOSPHORUS [2] was 12.07 mg/dL, the POTASSIUM [2] was 7.2 MEQ/L and the SODIUM [2] was 151.5 MEQ/L. For the same molecule, the “TOTAL BILIRUBIN” value [2] was 0.58 mg/dL, the “TOTAL PROTEIN” value [2] was 6.72 G/DL and the BASOPHIL [3] was 0.43%. The EOSINOPHIL [3] was 0.4%, the “ERYTHROCYTE COUNT” value [3] was 7.13 x10E6/uL and the HEMATOCRIT [3] was 45.67%. The HEMOGLOBIN [3] was 14.3 G/DL, the “LEUKOCYTE COUNT” value [3] was 11.21 x10E3/uL and the LYMPHOCYTE [3] was 84.83%. For the same molecule, the “MEAN CORPUSCULAR HEMOGLOBIN” value [3] was 20.07 pg, the “MEAN CORPUSCULAR HEMOGLOBIN CONCENTRATION” value [3] was 31.3 G/DL and the “MEAN CORPUSCULAR VOLUME” value [3] was 64.07 fL. The MONOCYTE [3] was 2.23%, the NEUTROPHIL [3] was 11.1% and the “PLATELET COUNT” value [3] was 1445.33 x10E3/uL. For the same molecule, the “ALANINE AMINOTRANSFERASE” value [3] was 31.33 u/L, the ALBUMIN [3] was 3.93 G/DL and the “ALKALINE PHOSPHATASE” value [3] was 342 u/L. The “ASPARTATE AMINOTRANSFERASE” value [3] was 61.33 u/L, the “BLOOD UREA NITROGEN” value [3] was 14.33 mg/dL and the CHLORIDE [3] was 96.67 MEQ/L. For the same molecule, the CHOLESTEROL [3] was 69.33 mg/dL, the “CREATINE PHOSPHOKINASE” value [3] was 136.67 u/L and the CREATININE [3] was 0.57 mg/dL. It also gave a GLUCOSE [3] of 209 mg/dL, a PHOSPHORUS [3] of 12.67 mg/dL and a POTASSIUM [3] of 6.4 MEQ/L. The SODIUM [3] was 140.67 MEQ/L, the “TOTAL BILIRUBIN” value [3] was 0.4 mg/dL and the “TOTAL PROTEIN” value [3] was 7.1 G/DL. For the same molecule, the BASOPHIL [4] was 0.73%, the EOSINOPHIL [4] was 0.3% and the “ERYTHROCYTE COUNT” value [4] was 7.49 x10E6/uL. For the same molecule, the HEMATOCRIT [4] was 47.87%, the HEMOGLOBIN [4] was 14.97 G/DL and the “LEUKOCYTE COUNT” value [4] was 9.72 x10E3/uL. For the same molecule, the LYMPHOCYTE [4] was 82.5%, the “MEAN CORPUSCULAR HEMOGLOBIN” value [4] was 20.07 pg and the “MEAN CORPUSCULAR HEMOGLOBIN CONCENTRATION” value [4] was 31.37 G/DL. For the same molecule, the “MEAN CORPUSCULAR VOLUME” value [4] was 63.9 fL, the MONOCYTE [4] was 2% and the NEUTROPHIL [4] was 13.77%. The “PLATELET COUNT” value [4] was 1482.33 x10E3/uL, the “ALANINE AMINOTRANSFERASE” value [4] was 38.67 u/L and the ALBUMIN [4] was 3.83 G/DL. For the same molecule, the “ALKALINE PHOSPHATASE” value [4] was 409.67 u/L, the “ASPARTATE AMINOTRANSFERASE” value [4] was 66.33 u/L and the “BLOOD UREA NITROGEN” value [4] was 13.33 mg/dL. The CHLORIDE [4] was 107 MEQ/L, the CHOLESTEROL [4] was 62.67 mg/dL and the “CREATINE PHOSPHOKINASE” value [4] was 135.67 u/L. It also gave a CREATININE [4] of 0.67 mg/dL, a GLUCOSE [4] of 154.33 mg/dL and a PHOSPHORUS [4] of 12.77 mg/dL. The POTASSIUM [4] was 7.43 MEQ/L, the SODIUM [4] was 151.33 MEQ/L and the “TOTAL BILIRUBIN” value [4] was 0.5 mg/dL. The “TOTAL PROTEIN” value [4] was 6.93 G/DL, the BASOPHIL [5] was 0.57% and the EOSINOPHIL [5] was 0.37%. The “ERYTHROCYTE COUNT” value [5] was 6.91 x10E6/uL, the HEMATOCRIT [5] was 44.07% and the HEMOGLOBIN [5] was 13.83 G/DL. The “LEUKOCYTE COUNT” value [5] was 11.28 x10E3/uL, the LYMPHOCYTE [5] was 85.87% and the “MEAN CORPUSCULAR HEMOGLOBIN” value [5] was 20.03 pg. For the same molecule, the “MEAN CORPUSCULAR HEMOGLOBIN CONCENTRATION” value [5] was 31.4 G/DL, the “MEAN CORPUSCULAR VOLUME” value [5] was 63.73 fL and the MONOCYTE [5] was 1.8%. For the same molecule, the NEUTROPHIL [5] was 10.03%, the “PLATELET COUNT” value [5] was 1654.67 x10E3/uL and the “ALANINE AMINOTRANSFERASE” value [5] was 36 u/L. The ALBUMIN [5] was 3.73 G/DL, the “ALKALINE PHOSPHATASE” value [5] was 364.67 u/L and the “ASPARTATE AMINOTRANSFERASE” value [5] was 63.33 u/L. For the same molecule, the “BLOOD UREA NITROGEN” value [5] was 14 mg/dL, the CHLORIDE [5] was 97.33 MEQ/L and the CHOLESTEROL [5] was 62.67 mg/dL. The “CREATINE PHOSPHOKINASE” value [5] was 126.33 u/L, the CREATININE [5] was 0.5 mg/dL and the GLUCOSE [5] was 187 mg/dL. For the same molecule, the PHOSPHORUS [5] was 11.57 mg/dL, the POTASSIUM [5] was 6.97 MEQ/L and the SODIUM [5] was 138.67 MEQ/L. The “TOTAL BILIRUBIN” value [5] was 0.4 mg/dL, the “TOTAL PROTEIN” value [5] was 6.6 G/DL and the BASOPHIL [6] was 0.47%. The EOSINOPHIL [6] was 0.3%, the “ERYTHROCYTE COUNT” value [6] was 7.11 x10E6/uL and the HEMATOCRIT [6] was 44.93%. The HEMOGLOBIN [6] was 13.73 G/DL, the “LEUKOCYTE COUNT” value [6] was 9.26 x10E3/uL and the LYMPHOCYTE [6] was 88.1%. The “MEAN CORPUSCULAR HEMOGLOBIN” value [6] was 19.37 pg, the “MEAN CORPUSCULAR HEMOGLOBIN CONCENTRATION” value [6] was 30.6 G/DL and the “MEAN CORPUSCULAR VOLUME” value [6] was 63.23 fL. For the same molecule, the MONOCYTE [6] was 1.83%, the NEUTROPHIL [6] was 9.33% and the “PLATELET COUNT” value [6] was 1288 x10E3/uL. For the same molecule, the “ALANINE AMINOTRANSFERASE” value [6] was 40.33 u/L, the ALBUMIN [6] was 3.67 G/DL and the “ALKALINE PHOSPHATASE” value [6] was 314 u/L. For the same molecule, the “ASPARTATE AMINOTRANSFERASE” value [6] was 66 u/L, the “BLOOD UREA NITROGEN” value [6] was 12.33 mg/dL and the CHLORIDE [6] was 108.33 MEQ/L. For the same molecule, the CHOLESTEROL [6] was 66 mg/dL, the “CREATINE PHOSPHOKINASE” value [6] was 136 u/L and the CREATININE [6] was 0.63 mg/dL. It also gave a GLUCOSE [6] of 161 mg/dL, a PHOSPHORUS [6] of 12.37 mg/dL and a POTASSIUM [6] of 7.3 MEQ/L. The SODIUM [6] was 151.67 MEQ/L, the “TOTAL BILIRUBIN” value [6] was 0.33 mg/dL and the “TOTAL PROTEIN” value [6] was 6.57 G/DL.
